# Assay: Example 1: liver biomarkers (total bilirubin, ALT, AST, ALP) in short bowel syndrome patients, every four weeks for 24 weeks; also sorted by >5% change from baseline
# Assay type: in vivo, Human
# Set-up: AST (SGOT) Change from Baseline Median / ALT (SGPT) Median / TOTAL BILIRUBIN Median / TOTAL BILIRUBIN Change from Baseline Median / ALT (SGPT) Change from Baseline Median / AST (SGOT) Median: unit not given here
# Details: for AST (SGOT) Change from Baseline Median / AST (SGOT) Median / TOTAL BILIRUBIN Change from Baseline Median / TOTAL BILIRUBIN Median / ALKALINE PHOSPHATASE Change from Baseline Median / ALT (SGPT) Change from Baseline Median / ALT (SGPT) Median: 0.10 mg/kg/day; for ALKALINE PHOSPHATASE change from baseline <−5%, number of patients / ALKALINE PHOSPHATASE change from baseline <−5%, percent of patients / ALKALINE PHOSPHATASE change from baseline >5%, number of patients / ALKALINE PHOSPHATASE change from baseline >5%, percent of patients / ALKALINE PHOSPHATASE change from baseline −5% <= and <=5%, number of patients / ALKALINE PHOSPHATASE change from baseline −5% <= and <=5%, percent of patients / ALT (SGPT) change from baseline <−5%, number of patients / ALT (SGPT) change from baseline <−5%, percent of patients / ALT (SGPT) change from baseline >5%, number of patients / ALT (SGPT) change from baseline >5%, percent of patients / ALT (SGPT) change from baseline −5% <= and <=5%, number of patients / ALT (SGPT) change from baseline −5% <= and <=5%, percent of patients / AST (SGOT) change from baseline <−5%, number of patients / AST (SGOT) change from baseline <−5%, percent of patients / AST (SGOT) change from baseline >5%, number of patients / AST (SGOT) change from baseline >5%, percent of patients / AST (SGOT) change from baseline −5% <= and <=5%, number of patients / AST (SGOT) change from baseline −5% <= and <=5%, percent of patients / TOTAL BILIRUBIN change from baseline <−5%, number of patients / TOTAL BILIRUBIN change from baseline <−5%, percent of patients / TOTAL BILIRUBIN change from baseline >5%, number of patients / TOTAL BILIRUBIN change from baseline >5%, percent of patients / TOTAL BILIRUBIN change from baseline −5% <= and <=5%, number of patients / TOTAL BILIRUBIN change from baseline −5% <= and <=5%, percent of patients: 0.1 mg/kg/day
# Description: Human patients with short bowel syndrome were divided into three groups: a control group (16 total individuals) to receive placebo, an experimental group (35 total individuals) to receive teduglutide at 0.05 mg/kg/day throughout the study, and an experimental group (32 total individuals) to receive teduglutide at 0.1 mg/kg/day throughout the study. Patients were treated by subcutaneous injection of placebo or the appropriate dose of teduglutide. As individuals with short bowel syndrome are likely to experience associated liver and kidney disease, known biomarkers of liver and kidney function were monitored every four weeks, for 24 weeks. The liver biomarkers tested included total bilirubin, ALT and AST and ALP. The kidney biomarkers tested included urea nitrogen, creatinine and GFR. Before administration of placebo or teduglutide, diagnostic biomarker levels were tested to establish a baseline for each individual.
# To visualize the effect of GLP-2 on the levels of the diagnostic biomarkers, the average change from baseline was calculated for the placebo and teduglutide treated groups for each visit after a baseline was established. The average change from baseline of each group is depicted in FIGS. 1-7. The numerical figures for each diagnostic biomarker at each time point are depicted in Table 1.
# The efficacy of teduglutide in treating liver dysfunction was further tested by sorting the data into two groups: individuals with abnormal baseline values of liver diagnostic biomarkers; and individuals with normal baseline values of liver diagnostic biomarkers. The mean diagnostic biomarker change from baseline for these two groups is shown for ALT (FIGS. 5 and 6) and AST (FIGS. 7 and 8). […] These changes were significant when compared to baseline levels for the group, and when compared to placebo (see FIGS. 5 and 7).
# The raw data for this sorting is reproduced in Table 2 below.
smiles,measurement,setting,value
CC[C@H](C)[C@H](NC(=O)[C@H](Cc1ccccc1)NC(=O)[C@H](CC(=O)O)NC(=O)[C@H](CCCNC(=N)N)NC(=O)[C@H](C)NC(=O)[C@H](C)NC(=O)[C@H](CC(C)C)NC(=O)[C@H](CC(N)=O)NC(=O)[C@H](CC(=O)O)NC(=O)[C@H](CC(C)C)NC(=O)[C@@H](NC(=O)[C@@H](NC(=O)[C@H](CC(N)=O)NC(=O)[C@H](CCSC)NC(=O)[C@H](CCC(=O)O)NC(=O)[C@H](CC(=O)O)NC(=O)[C@H](CO)NC(=O)[C@H](Cc1ccccc1)NC(=O)[C@H](CO)NC(=O)CNC(=O)[C@H](CC(=O)O)NC(=O)CNC(=O)[C@@H](N)Cc1c[nH]cn1)[C@@H](C)O)[C@@H](C)CC)C(=O)N[C@@H](CC(N)=O)C(=O)N[C@@H](Cc1c[nH]c2ccccc12)C(=O)N[C@@H](CC(C)C)C(=O)N[C@H](C(=O)N[C@@H](CCC(N)=O)C(=O)N[C@H](C(=O)N[C@@H](CCCCN)C(=O)N[C@H](C(=O)N[C@H](C(=O)N[C@@H](CC(=O)O)C(=O)O)[C@@H](C)O)[C@@H](C)CC)[C@@H](C)O)[C@@H](C)CC [teduglutide],AST (SGOT) Change from Baseline Median,DW4,−5.0
same,AST (SGOT) Median,DW4,28.0
same,TOTAL BILIRUBIN Change from Baseline Median,DW4,−1.0
same,TOTAL BILIRUBIN Median,DW4,7.0
same,ALKALINE PHOSPHATASE Change from Baseline Median,DW8,−20.0
same,ALT (SGPT) Change from Baseline Median,DW8,−8.0
same,AST (SGOT) Change from Baseline Median,DW8,−5.0
same,AST (SGOT) Median,DW8,28.0
same,TOTAL BILIRUBIN Change from Baseline Median,DW8,−1.0
same,TOTAL BILIRUBIN Median,DW8,7.0
same,ALT (SGPT) Change from Baseline Median,DW12,−11.0
same,ALT (SGPT) Median,DW12,35.0
same,AST (SGOT) Change from Baseline Median,DW12,−3.5
same,TOTAL BILIRUBIN Change from Baseline Median,DW12,0.0
same,TOTAL BILIRUBIN Median,DW12,7.0
same,ALT (SGPT) Change from Baseline Median,DW16,−10.0
same,ALT (SGPT) Median,DW16,30.0
same,AST (SGOT) Change from Baseline Median,DW16,−4.0
same,AST (SGOT) Median,DW16,30.0
same,TOTAL BILIRUBIN Change from Baseline Median,DW16,−0.5
same,TOTAL BILIRUBIN Median,DW16,7.5
same,ALKALINE PHOSPHATASE Change from Baseline Median,DW20,−23.0
same,ALT (SGPT) Change from Baseline Median,DW20,−9.0
same,ALT (SGPT) Median,DW20,29.0
same,AST (SGOT) Change from Baseline Median,DW20,−2.5
same,AST (SGOT) Median,DW20,30.0
same,TOTAL BILIRUBIN Change from Baseline Median,DW20,0.0
same,TOTAL BILIRUBIN Median,DW20,7.0
same,ALKALINE PHOSPHATASE Change from Baseline Median,DW 24,−21.0
same,ALT (SGPT) Change from Baseline Median,DW 24,−4.0
same,ALT (SGPT) Median,DW 24,37.0
same,AST (SGOT) Change from Baseline Median,DW 24,−3.0
same,AST (SGOT) Median,DW 24,32.0
same,TOTAL BILIRUBIN Change from Baseline Median,DW 24,0.0
same,TOTAL BILIRUBIN Median,DW 24,9.0
same,"ALKALINE PHOSPHATASE change from baseline <−5%, number of patients",week 4,17
same,"ALKALINE PHOSPHATASE change from baseline <−5%, percent of patients",week 4,(53.1%)
same,"ALKALINE PHOSPHATASE change from baseline >5%, number of patients",week 4,11
same,"ALKALINE PHOSPHATASE change from baseline >5%, percent of patients",week 4,(34.4%)
same,"ALKALINE PHOSPHATASE change from baseline −5% <= and <=5%, number of patients",week 4,4
same,"ALKALINE PHOSPHATASE change from baseline −5% <= and <=5%, percent of patients",week 4,(12.5%)
same,"ALT (SGPT) change from baseline <−5%, number of patients",week 4,20
same,"ALT (SGPT) change from baseline <−5%, percent of patients",week 4,(62.5%)
same,"ALT (SGPT) change from baseline >5%, number of patients",week 4,10
same,"ALT (SGPT) change from baseline >5%, percent of patients",week 4,(31.3%)
same,"ALT (SGPT) change from baseline −5% <= and <=5%, number of patients",week 4,2
same,"ALT (SGPT) change from baseline −5% <= and <=5%, percent of patients",week 4,(6.3%)
same,"AST (SGOT) change from baseline <−5%, number of patients",week 4,17
same,"AST (SGOT) change from baseline <−5%, percent of patients",week 4,(53.1%)
same,"AST (SGOT) change from baseline >5%, number of patients",week 4,10
same,"AST (SGOT) change from baseline >5%, percent of patients",week 4,(31.3%)
same,"AST (SGOT) change from baseline −5% <= and <=5%, number of patients",week 4,4
same,"AST (SGOT) change from baseline −5% <= and <=5%, percent of patients",week 4,(12.5%)
same,"TOTAL BILIRUBIN change from baseline <−5%, number of patients",week 4,16
same,"TOTAL BILIRUBIN change from baseline <−5%, percent of patients",week 4,(50.0%)
same,"TOTAL BILIRUBIN change from baseline >5%, number of patients",week 4,12
same,"TOTAL BILIRUBIN change from baseline >5%, percent of patients",week 4,(37.5%)
same,"TOTAL BILIRUBIN change from baseline −5% <= and <=5%, number of patients",week 4,3
same,"TOTAL BILIRUBIN change from baseline −5% <= and <=5%, percent of patients",week 4,(9.4%)
same,"ALKALINE PHOSPHATASE change from baseline <−5%, number of patients",week 8,24
same,"ALKALINE PHOSPHATASE change from baseline <−5%, percent of patients",week 8,(75.0%)
same,"ALKALINE PHOSPHATASE change from baseline >5%, number of patients",week 8,5
same,"ALKALINE PHOSPHATASE change from baseline >5%, percent of patients",week 8,(15.6%)
same,"ALKALINE PHOSPHATASE change from baseline −5% <= and <=5%, number of patients",week 8,2
same,"ALKALINE PHOSPHATASE change from baseline −5% <= and <=5%, percent of patients",week 8,(6.3%)
same,"ALT (SGPT) change from baseline <−5%, number of patients",week 8,20
same,"ALT (SGPT) change from baseline <−5%, percent of patients",week 8,(62.5%)
same,"ALT (SGPT) change from baseline >5%, number of patients",week 8,8
same,"ALT (SGPT) change from baseline >5%, percent of patients",week 8,(25.0%)
same,"ALT (SGPT) change from baseline −5% <= and <=5%, number of patients",week 8,2
same,"ALT (SGPT) change from baseline −5% <= and <=5%, percent of patients",week 8,(6.3%)
same,"AST (SGOT) change from baseline <−5%, number of patients",week 8,21
same,"AST (SGOT) change from baseline <−5%, percent of patients",week 8,(65.6%)
same,"AST (SGOT) change from baseline >5%, number of patients",week 8,5
same,"AST (SGOT) change from baseline >5%, percent of patients",week 8,(15.6%)
same,"AST (SGOT) change from baseline −5% <= and <=5%, number of patients",week 8,4
same,"AST (SGOT) change from baseline −5% <= and <=5%, percent of patients",week 8,(12.5%)
same,"TOTAL BILIRUBIN change from baseline <−5%, number of patients",week 8,16
same,"TOTAL BILIRUBIN change from baseline <−5%, percent of patients",week 8,(50.0%)
same,"TOTAL BILIRUBIN change from baseline >5%, number of patients",week 8,7
same,"TOTAL BILIRUBIN change from baseline >5%, percent of patients",week 8,(21.9%)
same,"TOTAL BILIRUBIN change from baseline −5% <= and <=5%, number of patients",week 8,6
same,"TOTAL BILIRUBIN change from baseline −5% <= and <=5%, percent of patients",week 8,(18.8%)
same,"ALKALINE PHOSPHATASE change from baseline <−5%, number of patients",week 12,19
same,"ALKALINE PHOSPHATASE change from baseline <−5%, percent of patients",week 12,(59.4%)
same,"ALKALINE PHOSPHATASE change from baseline >5%, number of patients",week 12,10
same,"ALKALINE PHOSPHATASE change from baseline >5%, percent of patients",week 12,(31.3%)
same,"ALKALINE PHOSPHATASE change from baseline −5% <= and <=5%, number of patients",week 12,1
same,"ALKALINE PHOSPHATASE change from baseline −5% <= and <=5%, percent of patients",week 12,(3.1%)
same,"ALT (SGPT) change from baseline <−5%, number of patients",week 12,20
same,"ALT (SGPT) change from baseline <−5%, percent of patients",week 12,(62.5%)
same,"ALT (SGPT) change from baseline >5%, number of patients",week 12,7

# Source: patent US20130157954A1, “METHODS FOR TREATMENT OR PROPHYLAXIS OF KIDNEY OR LIVER DYSFUNCTION” (NPS PHARMACEUTICALS, INC., priority 2010, published 2013)
